Experimental data from patent publication US20260374766A1, “METHODS FOR TREATING CANCER” (Antares Therapeutics, Inc., priority 2022, published 2026).
Counter-ions that a name gives are not always drawn. Like-named read-outs stand apart in the source and are kept apart here.

Key:
[1] = molecular target: T1, p53 Y220C mutant protein (amino acid residues 94-293) (Homo sapiens, UniProt P04637, Y220C); assay: Thermal Shift Assay (TSA), dTM; format: binding; conditions: for ΔTm at 100 µM: 100 uM compound, read-out: TSA P53 Y220C dTM (100 uM); for ΔTm at 10 µM: 10 uM compound
T1 construct: p53 Y220C mutant protein (amino acid residues 94-293)
Experimental: Thermal Shift Assay (TSA) Protocol
5 μM recombinant p53 Y220C mutant protein (amino acid residues 94-293) was incubated with 10 μM or 100 μM compound for 3 hours at 20 °C in buffer containing 20 mM HEPES, pH7.4, 100 mM NaCl, 0.01% Pluronic F-127, and 1% DMSO in the presence of 400-fold diluted Sypro Orange (ThermoFisher Scientific catalog number 4461146), on a 384-well PCR plate (Applied Biosystems catalog number 4483285). The volume was 5 μL/well. The sealed plate was then loaded onto a QuantStudio 7 Flex instrument for melting temperature (TM) measurement. The temperature was increased from 30 °C to […], at a rate of 0.03 °C/second. Data were fit into a Boltzmann two-state model to determine the TM.

p53 Y220C = p53 Y220C (Homo sapiens, UniProt P04637, Y220C); assay: Luciferase Reporter Assay (Luc), p53 response element, NClH1299 cells with inducible p53 Y220C; format: cell-based; conditions: 6 hour; for AC50: read-out: Luc P53 Y220C AC50
Outline: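 H1299 cells induced with 0.5 ug/mL doxycycline for 24 hours, then exposed to compound for 6 hours. p53 response-element luciferase read by One-Glo luminescence after 5 min shaking at room temperature.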

NUGC3 p53 Y220C = assay: Cell Proliferation Assay (CellTiter-Glo, CTG), NUGC3 p53 Y220C; format: cell-based; conditions: Homo sapiens, NUGC-3, 120 h, 5 days
Outline: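 NClH1299 lines stably transduced with Tet-inducible p53 Y220C or R273H, plus NUGC3, were treated with compound for 5 days at 250-500 cells/well. IC50 derived from CellTiter-Glo luminescent signal after 10 min room-temperature incubation.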

H1299 p53 Y220C = assay: Cell Proliferation Assay (CellTiter-Glo, CTG), H1299 p53 Y220C (NClH1299-inducible p53 Y220C); format: cell-based; conditions: Homo sapiens, NCI-H1299, 120 h, 5 days
Outline: (§1)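 Cells seeded at 250-500 per well and exposed to compound for 5 days. Viability read by CellTiter-Glo luminescence after 10 min at room temperature; IC50 calculated. H1299 lines carry Tet-One inducible p53 mutant constructs introduced by lentiviral transduction.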

H1299 p53 R273H = assay: Cell Proliferation Assay (CellTiter-Glo, CTG), H1299 p53 R273H (NClH1299-inducible p53 R273H); format: cell-based; conditions: Homo sapiens, NCI-H1299, 120 h, 5 days
Outline: as §1

[2] = molecular target: T1, p53 Y220C mutant protein (amino acid residues 94-293); assay: Surface Plasmon Resonance (SPR) assay, Kd_kinetic; format: binding; conditions: SPR, p53 Y220C, read-out: SPR P53 Y220C KD kinetic
Outline: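 Binding measured by SPR on a Biacore 8K in running buffer of 50 mM Tris pH 7.5, 100 mM NaCl, 1 mM DTT, 0.01% Brij35, 0.05% Tween-20, 1% DMSO.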

[3] = luciferase reporter, NClH1299 inducible p53 Y220C, 10 uM tool compound as positive control
[4] = luciferase reporter, NClH1299 inducible p53 Y220C
[5] = thermal shift, read-out: TSA P53 Y220C dTM (10 uM)
[6] = AC50, NClH1299 cells with inducible p53 Y220C
[7] = Emax, NClH1299 cells with inducible p53 Y220C, 10 uM tool compound as positive control
[8] = NClH1299-inducible p53 Y220C cells
[9] = NClH1299-inducible p53 R273H cells

ΔTm at 100 µM ([1]; thermal shift) [°C]	Emax (p53 Y220C; [3]) [%]	AC50 (p53 Y220C; [4]) [nM]	IC50 (H1299 p53 Y220C; CellTiter-Glo, H1299 p53 Y220C) [nM]	IC50 (H1299 p53 R273H; CellTiter-Glo, H1299 p53 R273H) [nM]	Kd [2] [nM]	SMILES	IC50 (NUGC3 p53 Y220C; CellTiter-Glo, NUGC3 p53 Y220C) [nM]	also measured
5 to 10	80 to 90	> 3000	1500 to 3000	≥ 10000		COc1cc(S(C)(=O)=O)ccc1NCC#Cc1nc2c(NC3CCN(C(C)=O)CC3)cccn2c1CC(F)(F)F [Example 10, 1-{4-[(2-{3-[(4-methanesulfonyl-2-methoxyphenyl)amino]prop-1-yn-1-yl}-3-(2,2,2-trifluoroethyl)imidazo[1,2-a]pyridin-8-yl)amino]piperidin-1-yl}ethanone]	> 3000	
1 to 5	< 70		> 3000	≥ 10000		C=C(C)C(=O)Nc1cc(NC2CCN(C)CC2)c2nc(C#CCNc3ccc(C(=O)NC)cc3OC)c(CC(F)(F)F)n2c1 [Example 13, 3-methoxy-N-methyl-4-[(3-{8-[(1-methylpiperidin-4-yl)amino]-6-(2-methylprop-2-enamido)-3-(2,2,2-trifluoroethyl)imidazo[1,2-a]pyridin-2-yl}prop-2-yn-1-yl)amino]benzamide, formic acid salt]	> 3000	
5 to 10	< 70	> 3000	> 3000	≥ 10000		CC#Cc1nc2c(N[C@@H]3CCN(C)C[C@@H]3F)cccn2c1CC(F)(F)F [Example 18, (3S,4R)-3-fluoro-1-methyl-N-[2-(prop-1-yn-1-yl)-3-(2,2,2-trifluoroethyl)imidazo[1,2-a]pyridin-8-yl]piperidin-4-amine]		Kd ([2]; kinetic KD): 10 to 100 nM
5 to 10	< 70	> 3000	> 3000	≥ 10000		CC#Cc1nc2c(NC3CCN(C)CC3)cccn2c1CC(F)(F)F [Example 19, 1-methyl-N-[2-(prop-1-yn-1-yl)-3-(2,2,2-trifluoroethyl)imidazo[1,2-a]pyridin-8-yl]piperidin-4-amine]		Kd ([2]; kinetic KD): 100 to 1000 nM
1 to 5						C=Cc1c(C#CC)nc2c(NC3CCN(C)CC3)cccn12 [Example 21, N-[3-ethenyl-2-(prop-1-yn-1-yl)imidazo[1,2-a]pyridin-8-yl]-1-methylpiperidin-4-amine]		
5 to 10	< 70	> 3000	> 3000	≥ 10000		C=CC(=O)Nc1c(C#CCNc2ccc(C(=O)NC)cc2OC)nc2c(N[C@@H]3CCN(C)C[C@@H]3F)cccn12 [Example 23, 4-{[3-(8-{[(3S,4R)-3-fluoro-1-methylpiperidin-4-yl]amino}-3-(prop-2-enamido)imidazo[1,2-a]pyridin-2-yl)prop-2-yn-1-yl]amino}-3-methoxy-N-methylbenzamide]	> 3000	
5 to 10	< 70	> 3000	> 3000	≥ 10000		C=CC(=O)N(C)c1c(C#CCNc2ccc(C(=O)NC)cc2OC)nc2c(N[C@@H]3CCN(C)C[C@@H]3F)cccn12 [Example 26, 4-{[3-(8-{[(3S,4R)-3-fluoro-1-methylpiperidin-4-yl]amino}-3-(N-methylprop-2-enamido)imidazo[1,2-a]pyridine-2-yl)prop-2-yn-1-yl]amino}-3-methoxy-N-methylbenzamide]	> 3000	
5 to 10	< 70	> 3000	> 3000	≥ 10000		COc1cc(S(C)(=O)=O)ccc1NCC#Cc1nc2c(NC3CCN(C)CC3)cc(O)cn2c1CC(F)(F)F [Example 27, 2-{3-[(4-methanesulfonyl-2-methoxyphenyl)amino]prop-1-yn-1-yl}-8-[(1-methylpiperidin-4-yl)amino]-3-(2,2,2-trifluoroethyl)imidazo[1,2-a]pyridin-6-ol, TFA salt]	> 3000	
≥ 10	80 to 90	< 750	< 750	8000 to 10000		CNC(=O)c1ccc(NCC#Cc2nc3c(N[C@@H]4CCN(C)C[C@@H]4F)cccn3c2SC(F)(F)F)c(OC)c1 [Example 28, 4-{[3-(8-{[(3S,4R)-3-fluoro-1-methylpiperidin-4-yl]amino}-3-[(trifluoromethyl)sulfanyl]imidazo[1,2-a]pyridin-2-yl)prop-2-yn-1-yl]amino}-3-methoxy-N-methylbenzamide, formic acid salt]	< 750	ΔTm at 10 µM [1, 5]: ≥ 10 °C
1 to 5						COc1cc(S(C)(=O)=O)ccc1NCC#Cc1nc2c(NC3CCN(C)CC3)cc(NC(=O)OC(C)(C)C)cn2c1CC(F)(F)F [Example 31, tert-butyl N-(2-{3-[(4-methanesulfonyl-2-methoxyphenyl)amino]prop-1-yn-1-yl}-8-[(1-methylpiperidin-4-yl)amino]-3-(2,2,2-trifluoroethyl)imidazo[1,2-a]pyridin-6-yl) carbamate]		
	80 to 90	< 750	< 750			CNC(=O)c1ccc(NCC#Cc2nc3c(N[C@@H]4CCN(CC(C)(C)O)C[C@@H]4F)cccn3c2SC(F)(F)F)c(OC)c1 [Example 164]		Kd ([2]; kinetic KD): < 10 nM; ΔTm at 10 µM [1, 5]: ≥ 10 °C
					< 10	CNC(=O)c1cnc(OC)c(NCC#Cc2nc3c(N[C@@H]4C[C@H]5CC[C@@H]([C@@H]4F)N5C)cccn3c2SC(F)(F)F)c1 [Example 265]		ΔTm at 10 µM ([1]; p53 Y220C, read-out: TSA P53 Y220C dTM): ≥ 10 °C; AC50 (p53 Y220C; AC50, luciferase reporter, NClH1299 inducible p53 Y220C): < 750 nM; Emax (p53 Y220C; Emax, luciferase reporter, NClH1299 inducible p53 Y220C): > 90%; IC50 (H1299 p53 Y220C; NClH1299-inducible p53 Y220C cells, CellTiter-Glo): < 750 nM
					< 10	[2H]C([2H])([2H])N1CC[C@@H](Nc2cccn3c(SC(F)(F)F)c(C#CCNc4ccc(C(=O)NC)cc4OC)nc23)[C@@H](F)C1 [Example 476, 4-((3-(8-(((3S,4R)-3-fluoro-1-(methyl-d3)piperidin-4-yl)amino)-3-((trifluoromethyl)thio)imidazo[1,2-a]pyridin-2-yl)prop-2-yn-1-yl)amino)-3-methoxy-N-methylbenzamide]		ΔTm at 10 µM ([1]; read-out: TSA P53 Y220C dTM): ≥ 10 °C; AC50 (p53 Y220C; [6]): < 750 nM; Emax (p53 Y220C; [7]): > 90%; IC50 (H1299 p53 Y220C; [8]): < 750 nM
					< 10	CNC(=O)c1ccc(NCC#Cc2cc3c(N[C@@H]4CCN(C)C[C@@H]4F)cccn3c2SC(F)(F)F)c(F)c1 [Example 502, 3-fluoro-4-{[3-(8-{[(3S,4R)-3-fluoro-1-methylpiperidin-4-yl]amino}-3-[(trifluoromethyl)sulfanyl]indolizin-2-yl)prop-2-yn-1-yl]amino}-N-methylbenzamide]		AC50 (p53 Y220C; [6]): < 750 nM; Emax (p53 Y220C; [7]): > 90%; IC50 (NUGC3 p53 Y220C; NUGC3 cells): < 750 nM; IC50 (H1299 p53 Y220C; [8]): < 750 nM; IC50 (H1299 p53 R273H; [9]): ≥ 10000 nM
					< 10	CNC(=O)c1ccc(NCC#Cc2cc3c(N[C@@H]4CCN(C5COC5)C[C@@H]4F)cccn3c2SC(F)(F)F)c(OC)c1 [Example 504, 4-{[3-(8-{[(3S,4R)-3-fluoro-1-(oxetan-3-yl)piperidin-4-yl]amino}-3-[(trifluoromethyl)sulfanyl]indolizin-2-yl)prop-2-yn-1-yl]amino}-3-methoxy-N-methylbenzamide]		AC50 (p53 Y220C; [6]): < 750 nM; Emax (p53 Y220C; [7]): > 90%; IC50 (NUGC3 p53 Y220C; NUGC3 cells): < 750 nM; IC50 (H1299 p53 Y220C; [8]): < 750 nM; IC50 (H1299 p53 R273H; [9]): < 5000 nM
					< 10	CNC(=O)c1ccc(C(=O)NC)c(NCC#Cc2cc3c(N[C@@H]4CCN(C)C[C@@H]4F)cccn3c2SC(F)(F)F)c1 [Example 508]		AC50 (p53 Y220C; [6]): < 750 nM; Emax (p53 Y220C; [7]): > 90%; IC50 (NUGC3 p53 Y220C; NUGC3 cells): < 750 nM; IC50 (H1299 p53 Y220C; [8]): < 750 nM; IC50 (H1299 p53 R273H; [9]): 8000 to 10000 nM
